Assay results from the supplement of paper PMC8882468.

System: HCI-016 (organoid from a triple-negative breast cancer xenograft)
Assay: CTG-3D luminescence at 96 h relative to day-0 seeding control (ratio to day 0); higher = more growth / less cytotoxicity; PDxO 3D drug screen (set 2), 96 h, CTG-3D normalised to day-0 seeding control.
Settings: 12.5 pM; days in culture: 305

Going from CCOc1ccn(-c2ccc(F)cc2)c(=O)c1C(=O)Nc1ccc(Oc2ccnc(N)c2Cl)c(F)c1 [ASLAN002] to O=C(c1cc(Cc2n[nH]c(=O)c3ccccc23)ccc1F)N1CCN(C(=O)C2CC2)CC1 [olaparib], the “CTG-3D luminescence at 96 h” value rises from 1.62 to 2.92.

First: C[C@@H](Nc1cc(F)cc(F)c1)c1cc(C(=O)N(C)C)cc2c(=O)cc(N3CCOCC3)oc12 [AZD-8186]
Second: CC(=O)c1c(C)c2cnc(Nc3ccc(N4CCNCC4)cn3)nc2n(C2CCCC2)c1=O [palbociclib]
The “CTG-3D luminescence at 96 h” value of the first is higher: 3.52 for the first, 2.74 for the second.

With COc1cccc2c1C(=O)c1c(O)c3c(c(O)c1C2=O)C[C@@](O)(C(=O)CO)C[C@@H]3O[C@H]1C[C@H](N)[C@@H](O)[C@H](C)O1 [epirubicin] the “CTG-3D luminescence at 96 h” value was 2.91.

Same assay, conditions: 12.5 pM; days in culture: 327

Compared with CCOc1ccn(-c2ccc(F)cc2)c(=O)c1C(=O)Nc1ccc(Oc2ccnc(N)c2Cl)c(F)c1 [ASLAN002], O=C(c1cc(Cc2n[nH]c(=O)c3ccccc23)ccc1F)N1CCN(C(=O)C2CC2)CC1 [olaparib] is higher in “CTG-3D luminescence at 96 h” value: 0.8 for the first, 1.25 for the second.

Compared with C[C@@H](Nc1cc(F)cc(F)c1)c1cc(C(=O)N(C)C)cc2c(=O)cc(N3CCOCC3)oc12 [AZD-8186], CC(=O)c1c(C)c2cnc(Nc3ccc(N4CCNCC4)cn3)nc2n(C2CCCC2)c1=O [palbociclib] is lower in “CTG-3D luminescence at 96 h” value: 1.3 for the first, 0.926 for the second.

COc1cccc2c1C(=O)c1c(O)c3c(c(O)c1C2=O)C[C@@](O)(C(=O)CO)C[C@@H]3O[C@H]1C[C@H](N)[C@@H](O)[C@H](C)O1 [epirubicin] was tested, and the “CTG-3D luminescence at 96 h” value was 0.93.

Same assay, conditions: 12.5 pM; days in culture: 341

First: CCOc1ccn(-c2ccc(F)cc2)c(=O)c1C(=O)Nc1ccc(Oc2ccnc(N)c2Cl)c(F)c1 [ASLAN002]
Second: O=C(c1cc(Cc2n[nH]c(=O)c3ccccc23)ccc1F)N1CCN(C(=O)C2CC2)CC1 [olaparib]
The “CTG-3D luminescence at 96 h” value of the first is higher: 1.97 for the first, 1.92 for the second.

First: C[C@@H](Nc1cc(F)cc(F)c1)c1cc(C(=O)N(C)C)cc2c(=O)cc(N3CCOCC3)oc12 [AZD-8186]
Second: CC(=O)c1c(C)c2cnc(Nc3ccc(N4CCNCC4)cn3)nc2n(C2CCCC2)c1=O [palbociclib]
The “CTG-3D luminescence at 96 h” value of the first is lower: 2.01 for the first, 2.28 for the second.

In the case of COc1cccc2c1C(=O)c1c(O)c3c(c(O)c1C2=O)C[C@@](O)(C(=O)CO)C[C@@H]3O[C@H]1C[C@H](N)[C@@H](O)[C@H](C)O1 [epirubicin], the “CTG-3D luminescence at 96 h” value is reported as 2.05.

Same assay, conditions: 12.5 pM; days in culture: 397

Compared with CCOc1ccn(-c2ccc(F)cc2)c(=O)c1C(=O)Nc1ccc(Oc2ccnc(N)c2Cl)c(F)c1 [ASLAN002], O=C(c1cc(Cc2n[nH]c(=O)c3ccccc23)ccc1F)N1CCN(C(=O)C2CC2)CC1 [olaparib] is lower in “CTG-3D luminescence at 96 h” value: 1.73 for the first, 1.5 for the second.

Compared with C[C@@H](Nc1cc(F)cc(F)c1)c1cc(C(=O)N(C)C)cc2c(=O)cc(N3CCOCC3)oc12 [AZD-8186], CC(=O)c1c(C)c2cnc(Nc3ccc(N4CCNCC4)cn3)nc2n(C2CCCC2)c1=O [palbociclib] is lower in “CTG-3D luminescence at 96 h” value: 2.34 for the first, 2 for the second.

COc1cccc2c1C(=O)c1c(O)c3c(c(O)c1C2=O)C[C@@](O)(C(=O)CO)C[C@@H]3O[C@H]1C[C@H](N)[C@@H](O)[C@H](C)O1 [epirubicin] was tested, and the “CTG-3D luminescence at 96 h” value was 2.

Same assay, conditions: 0.00025 µM; days in culture: 305

First: CCOc1ccn(-c2ccc(F)cc2)c(=O)c1C(=O)Nc1ccc(Oc2ccnc(N)c2Cl)c(F)c1 [ASLAN002]
Second: O=C(c1cc(Cc2n[nH]c(=O)c3ccccc23)ccc1F)N1CCN(C(=O)C2CC2)CC1 [olaparib]
The “CTG-3D luminescence at 96 h” value of the first is higher: 3.6 for the first, 2.24 for the second.

Compared with C[C@@H](Nc1cc(F)cc(F)c1)c1cc(C(=O)N(C)C)cc2c(=O)cc(N3CCOCC3)oc12 [AZD-8186], CC(=O)c1c(C)c2cnc(Nc3ccc(N4CCNCC4)cn3)nc2n(C2CCCC2)c1=O [palbociclib] is lower in “CTG-3D luminescence at 96 h” value: 4.53 for the first, 2.8 for the second.

For COc1cccc2c1C(=O)c1c(O)c3c(c(O)c1C2=O)C[C@@](O)(C(=O)CO)C[C@@H]3O[C@H]1C[C@H](N)[C@@H](O)[C@H](C)O1 [epirubicin], the “CTG-3D luminescence at 96 h” value was 3.05.

Same assay, conditions: 0.00025 µM; days in culture: 327

Going from CCOc1ccn(-c2ccc(F)cc2)c(=O)c1C(=O)Nc1ccc(Oc2ccnc(N)c2Cl)c(F)c1 [ASLAN002] to O=C(c1cc(Cc2n[nH]c(=O)c3ccccc23)ccc1F)N1CCN(C(=O)C2CC2)CC1 [olaparib], the “CTG-3D luminescence at 96 h” value falls from 1.78 to 0.765.

Going from C[C@@H](Nc1cc(F)cc(F)c1)c1cc(C(=O)N(C)C)cc2c(=O)cc(N3CCOCC3)oc12 [AZD-8186] to CC(=O)c1c(C)c2cnc(Nc3ccc(N4CCNCC4)cn3)nc2n(C2CCCC2)c1=O [palbociclib], the “CTG-3D luminescence at 96 h” value falls from 1.35 to 1.04.

COc1cccc2c1C(=O)c1c(O)c3c(c(O)c1C2=O)C[C@@](O)(C(=O)CO)C[C@@H]3O[C@H]1C[C@H](N)[C@@H](O)[C@H](C)O1 [epirubicin] was tested, and the “CTG-3D luminescence at 96 h” value was 0.767.

Same assay, conditions: 0.00025 µM; days in culture: 341

CCOc1ccn(-c2ccc(F)cc2)c(=O)c1C(=O)Nc1ccc(Oc2ccnc(N)c2Cl)c(F)c1 [ASLAN002] and O=C(c1cc(Cc2n[nH]c(=O)c3ccccc23)ccc1F)N1CCN(C(=O)C2CC2)CC1 [olaparib] are the same in “CTG-3D luminescence at 96 h” value: 1.78 for the first, 1.78 for the second.

Compared with C[C@@H](Nc1cc(F)cc(F)c1)c1cc(C(=O)N(C)C)cc2c(=O)cc(N3CCOCC3)oc12 [AZD-8186], CC(=O)c1c(C)c2cnc(Nc3ccc(N4CCNCC4)cn3)nc2n(C2CCCC2)c1=O [palbociclib] is higher in “CTG-3D luminescence at 96 h” value: 1.59 for the first, 1.75 for the second.

With COc1cccc2c1C(=O)c1c(O)c3c(c(O)c1C2=O)C[C@@](O)(C(=O)CO)C[C@@H]3O[C@H]1C[C@H](N)[C@@H](O)[C@H](C)O1 [epirubicin] the “CTG-3D luminescence at 96 h” value was 1.72.

Same assay, conditions: 0.00025 µM; days in culture: 397

First: CCOc1ccn(-c2ccc(F)cc2)c(=O)c1C(=O)Nc1ccc(Oc2ccnc(N)c2Cl)c(F)c1 [ASLAN002]
Second: O=C(c1cc(Cc2n[nH]c(=O)c3ccccc23)ccc1F)N1CCN(C(=O)C2CC2)CC1 [olaparib]
The “CTG-3D luminescence at 96 h” value of the first is lower: 2.37 for the first, 2.56 for the second.

Compared with C[C@@H](Nc1cc(F)cc(F)c1)c1cc(C(=O)N(C)C)cc2c(=O)cc(N3CCOCC3)oc12 [AZD-8186], CC(=O)c1c(C)c2cnc(Nc3ccc(N4CCNCC4)cn3)nc2n(C2CCCC2)c1=O [palbociclib] is lower in “CTG-3D luminescence at 96 h” value: 2.9 for the first, 2.56 for the second.

In the case of COc1cccc2c1C(=O)c1c(O)c3c(c(O)c1C2=O)C[C@@](O)(C(=O)CO)C[C@@H]3O[C@H]1C[C@H](N)[C@@H](O)[C@H](C)O1 [epirubicin], the “CTG-3D luminescence at 96 h” value is reported as 1.81.
